# Laboratory results: patent EP4186918A1 (Université de Rennes, priority 2021, dated 2023)
# Entries after “also recorded” stand apart in the source; their conditions may differ.
# Columns and labels:
# [1] = Sedimentation after polymerization (aggregative character); format: physicochemical; conditions: 800 µM peptide; sedimentable peptide after polymerization as % of total concentration
# Protocol: (§1) After thawing, a pre-dilution in milli Q H2O filtered through 0.2 µm was carried out in order to obtain a solution at a concentration close to the working concentration, greater than 1.25 times. This stock solution was left to incubate for 1 hour in a water bath at 25°C, and was then assayed spectrophotometrically and adjusted to the final working concentration of 1.25 times. The polymerization was initiated by adding 1/4 of the volume of 5X fibrillation buffer (50 mM MOPS, 750 mM NaCl, pH = 7.2) for a final concentration of 1X fibrillation buffer (10 mM MOPS, 150 mM NaCl, PH = 7.2). The samples were left to incubate for 1.5-2 hours at 25°C in a water bath. The study of the polymerization by fluorimetry was carried out under the same conditions, except that the 5X polymerization buffer was supplemented with Thioflavin T (ThT) at 100 µM in order to be able to observe the fluorescence. • (a) Determination of the Aggregative Character of the Peptides. […] The concentration of the supernatant was determined using the Beer-Lambert law A = ε x 1 x C; ε (peptides) = 1450 M^-1cm^-1. […] The fluorescence of the sample was then measured immediately after dilution by recording a fluorescence spectrum (470 nm to 600 nm) at an excitation wavelength of 450 nm (Perkin Elmer LS 55, PM 750, slit10).
# [2] = Thioflavin T fluorescence after polymerization (amyloidogenic character); format: physicochemical; conditions: 800 µM peptide; ThT fluorescence normalized to 1p = 100%
# Protocol: as §1
# [3] = Critical Assembly Concentration (CCa) by sedimentation; format: physicochemical; conditions: batch of VQIVYK used in the study; fibrillation buffer 1X
# Protocol: The polymerization of VQIVYK was initiated by mixing the VQIVYK peptide (at various concentrations, 52 µM to 344 µM) with 1/4 of its volume in fibrillation buffer 5X. Once polymerized, the samples were sedimented at 16,900 g for 15 minutes. The concentration of free peptide was measured by assay nanodrop 800. The concentration of polymerized peptide was thus determined using the following the relation: [1p]pellet = [1p]initial −[1p]supernatant [formula]
# [4] = Garnier-Delamarche representation combining sedimentation and ThT fluorescence; format: physicochemical; conditions: from sedimentation and ThT fluorescence
# Protocol: as §1, with “slit10). […]” for “slit10).”
# [5] = test system: VQIVYK (PHF6); assay: Polymerization kinetics of 1p with selected peptides, ThT spectrofluorimetry; format: biochemical, human
# Protocol: (§2) After thawing, a pre-dilution of the peptides of interest in sterile water was carried out in order to obtain, for each peptide, a solution at a concentration close to the working concentration. The peptides were then left to incubate at 4°C overnight. On the day of the experiment, the peptide solutions were sonicated for 10 minutes, left to stand for one hour at room temperature, sonicated again for 10 minutes and assayed spectrophotometrically at 280 nm (ε = 1450 M^-1cm^-1). The UV spectra were previously normalized to 0 at 300 nm. The solutions were prepared at concentrations of peptides 1/4 above that desired in the end. The polymerization of VQIVYK was initiated by adding 1/4 of the volume of fibrillation buffer 5X for a final concentration of fibrillation buffer 1X (10 mM MOPS, 150 mM NaCl, pH = 7.2).
# The analyses were carried out on a spectrofluorometer (LS 55 from Perkin Elmer) fitted with a 4-cell rack. Black quartz cells (0.2x1.0 cm) were used. Excitation and emission wavelengths were 450 nm and 480 nm, respectively, and the sensitivity (Photomultiplier "PM") was set at 800 V. The size of the slits was varied from 3 nm to 6 nm. Normalization of each kinetics was performed with respect to the position of the cell on the rack.
# The results were first smoothed over 10 points with the "smooth" option of the KaleidaGraph software. After normalization with respect to the position of the cells in the rack, each start of kinetics was adjusted to 0 before the addition of the fibrillation buffer. Finally, the results of each kinetics were normalized relative to the fluorescence intensity of the 1p control after 100 minutes of polymerization considered to be 100%.
# [6] = Polymerization kinetics of selected peptide alone, ThT spectrofluorimetry; format: physicochemical; conditions: 310 µM, ThT fluorescence
# Protocol: as §2
# The analyses were carried out on a spectrofluorometer (LS 55 from Perkin Elmer) fitted with a 4-cell rack. Black quartz cells (0.2x1.0 cm) were used. […]
# The results were first smoothed over 10 points with the "smooth" option of the KaleidaGraph software. […] Finally, the results of each kinetics were normalized relative to the fluorescence intensity of the 1p control after 100 minutes of polymerization considered to be 100%.
% sedimentation [1] [%],% fluorescence [2] [%],Critical Assembly Concentration (CCa) [3] [µM],polymerization of peptide alone [6],Substance,amyloidogenic and aggregative character [4],"category of polymerization kinetics of 1p in presence of peptide ([5]; [1p] = 155 µM, [selected peptide] = 310 µM)","effect on polymerization of 1p ([5]; [1p] = 155 µM, [selected peptide] = 310 µM, thresholds 50% rate, 100% fluorescence intensity)",classification of inhibitory effect (3 categories) ([5]; inhibition of PHF6 aggregation),persistence of inhibitory effect ([5]; polymerization followed for 15 hours)
94,100,32,,"Ac-VQIVYK-NH2 [1p, VQIVYK]",strong amyloidogenic and self-aggregative potential,,,,
0,1.3,,do not polymerize on their own,"Ac-YQIVVK-NH2 [6tp, YQIVVK]",weakly amyloidogenic and weakly aggregative,slow compared to 1p alone and which have a lower fluorescence intensity,clearly inhibited; also recorded: marked inhibitory effect,with a strong inhibitory effect,the inhibitory effect persisted
